# In patent publication US7915292B2, “Antibacterial quinoline derivatives” (Janssen Pharmaceutica NV, priority 2005, dated 2011):
# Structures can show the parent of a compound that is named as a salt.
# Experiments:
# M. Smegmatis ATCC607 = test: In-vitro anti-bacterial activity against strain M. smegmatis ATCC607 (Alamar Blue growth inhibition); assay type: cell-based; conditions: 48 hours incubation; for IC50: Mycolicibacterium smegmatis, read-out: M. smegmatis pIC50 (converted)
# Method: Serial five-fold dilutions (45 μl in 180 μl) were made directly in the microtiter plates from column 2 to 11 using a customised robot system (Zymark Corp., Hopkinton, Mass.). Pipette tips were changed after every 3 dilutions to minimize pipetting errors with high hydrophobic compounds. Untreated control samples with (column 1) and without (column 12) inoculum were included in each microtiter plate. Approximately 250 CFU per well of bacteria inoculum, in a volume of 100 μl in 2.8× Mueller-Hinton broth medium, was added to the rows […]. The same volume of broth medium without inoculum was added to column 12 in row A to H. The cultures were incubated at 37° C. for 48 hours in a humidified 5% CO2 atmosphere (incubator with open air valve and continuous ventilation). At the end of incubation, two days after inoculation, the bacterial growth was quantitated fluorometrically. Therefore Alamar Blue (10×) was added to all wells in a volume of 20 μl and plates were incubated for another 2 hours at […] The fluorescence was read in a computer-controlled fluorometer (Cytofluor, Biosearch) at an excitation wavelength of 530 nm and an emission wavelength of 590 nm (gain 30). The percentage growth inhibition achieved by the compounds was calculated according to standard methods and expressed as pIC50 values.
# [1] = test system: Mycobacterium tuberculosis (strain H37RV); test: In-vitro method for testing compounds against M. tuberculosis (resazurin growth inhibition); assay type: cell-based; conditions: Mycobacterium tuberculosis, 168 h, 7 days incubation, read-out: M. tuberculosis pIC50 (converted)
# STA 29213 = test: Microtitre plate assay, IC90 determination, STA 29213; assay type: cell-based, S. aureus; conditions: 90% inhibitory concentration for bacterial growth, strain STA 29213, 24 hours at 37° C.; for IC90: Staphylococcus aureus, read-out: IC90 (μg/ml) STA 29213
# Method: (§1) Stocks (0.5 ml/tube) were stored at -70° C. until use. Bacteria titrations were performed in microtiter plates to detect the TCID50, in which the TCID50 represents the dilution that gives rise to bacterial growth in 50% of inoculated cultures. In general, an inoculum level of approximately 100 TCID50 was used for susceptibility testing. […] Serial five-fold dilutions (45 μl in 180 μl) were made directly in the microtiter plates from column 2 to reach column 11. Untreated control samples with (column 1) and without (column 12) inoculum were included in each microtiter plate. Depending on the bacteria type, approximately 10 to 60 CFU per well of bacteria inoculum (100 TCID50), in a volume of 100 μl in 2.8× Mueller-Hinton broth medium, was added to the rows […]. The same volume of broth medium without inoculum was added to column 12 in row A to H. The cultures were incubated at 37° C. for 24 hours under a normal atmosphere (incubator with open air valve and continuous ventilation). At the end of incubation, one day after inoculation, the bacterial growth was quantitated fluorometrically. Therefore resazurin (0.6 mg/ml) was added in a volume of 20 μl to all wells 3 hours after inoculation, and the plates were re-incubated overnight. A change in colour from blue to pink indicated the growth of bacteria. The fluorescence was read in a computer-controlled fluorometer (Cytofluor Biosearch) at an excitation wavelength of 530 nm and an emission wavelength of 590 nm. The % growth inhibition achieved by the compounds was calculated according to standard methods. The IC90 (expressed in μg/ml) was defined as the 90% inhibitory concentration for bacterial growth.
# EFA 29212 = test: Microtitre plate assay, IC90 determination, EFA 29212; assay type: cell-based, E. faecalis; conditions: Enterococcus faecalis; 90% inhibitory concentration for bacterial growth; strain EFA 29212; 24 hours at 37° C.; read-out: IC90 (μg/ml) EFA 29212
# Method: as §1
# LMO 49594 = test: Microtitre plate assay, IC90 determination, LMO 49594; assay type: cell-based, Listeria monocytogenes; conditions: Listeria monocytogenes; 90% inhibitory concentration for bacterial growth; strain LMO 49594; 24 hours at 37° C.; read-out: IC90 (μg/ml) LMO 49594
# Method: as §1
# SMU 33402 = test: Microtitre plate assay, IC90 determination, SMU 33402; assay type: cell-based, S. mutans; conditions: Streptococcus mutans; 90% inhibitory concentration for bacterial growth; strain SMU 33402; 24 hours at 37° C.; read-out: IC90 (μg/ml) SMU 33402
# Method: as §1
# STA RMETH = test: Microtitre plate assay, IC90 determination, STA RMETH; assay type: cell-based, S. aureus; conditions: Staphylococcus aureus; 90% inhibitory concentration for bacterial growth; strain STA RMETH; 24 hours at 37° C.; read-out: IC90 (μg/ml) STA RMETH
# Method: as §1
# SPY 8668 = test: Microtitre plate assay, IC90 determination, SPY 8668; assay type: cell-based, S. pyogens; conditions: 90% inhibitory concentration for bacterial growth; strain SPY 8668; 24 hours at 37° C.; read-out: IC90 (μg/ml) SPY 8668
# Method: as §1
# ECO 25922 = test: Microtitre plate assay, IC90 determination, ECO 25922; assay type: cell-based, E. coli; conditions: 90% inhibitory concentration for bacterial growth, strain ECO 25922, 24 hours at 37° C.; for IC90: Escherichia coli, read-out: IC90 (μg/ml) ECO 25922
# Method: as §1
# SPN 6305 = test: Microtitre plate assay, IC90 determination, SPN 6305; assay type: cell-based, S. pneumoniae; conditions: 90% inhibitory concentration for bacterial growth, strain SPN 6305, 24 hours at 37° C.; for IC90: Streptococcus pneumoniae, read-out: IC90 (μg/ml) SPN 6305
# Method: as §1
# EFA 14506 = test: Microtitre plate assay, IC90 determination, EFA 14506; assay type: cell-based, E. faecalis; conditions: Enterococcus faecalis; 90% inhibitory concentration for bacterial growth; strain EFA 14506; 24 hours at 37° C.; read-out: IC90 (μg/ml) EFA 14506
# Method: as §1
# STA 25923 = test: Microtitre plate assay, IC90 determination, STA 25923; assay type: cell-based, S. aureus; conditions: Staphylococcus aureus; 90% inhibitory concentration for bacterial growth; strain STA 25923; 24 hours at 37° C.; read-out: IC90 (μg/ml) STA 25923
# Method: as §1
# PAE 27853 = test: Microtitre plate assay, IC90 determination, PAE 27853; assay type: cell-based, Pseudomonas aeruginosa; conditions: Pseudomonas aeruginosa; 90% inhibitory concentration for bacterial growth; strain PAE 27853; 24 hours at 37° C.; read-out: IC90 (μg/ml) PAE 27853
# Method: as §1
# BSU 43639 = test: Microtitre plate assay, IC90 determination, BSU 43639; assay type: cell-based, Bacillus subtilis; conditions: Bacillus subtilis; 90% inhibitory concentration for bacterial growth; strain BSU 43639; 24 hours at 37° C.; read-out: IC90 (μg/ml) BSU 43639
# Method: as §1
compound,measurement,setting,value
COc1cccc(CN(CCN(C)C)C(c2ccccc2)c2cc3cc(Br)ccc3nc2OC)c1 (stereo not shown) (as salt: oxalate) [Compound 20],melting point,,142 °C
Cc1ccc2nc(-c3ccccc3)c(C(c3ccccc3)N(C)CCN(C)C)cc2c1 (stereo not shown) (as salt: oxalate) [Compound 37],melting point,,142 °C
CNC(=O)CN(C)C(c1ccccc1)c1cc2cc(Br)ccc2nc1OC (stereo not shown) [Compound 3],melting point,,190 °C
same,IC50,M. Smegmatis ATCC607,89100 nM
same,IC50,[1],> 100000 nM
CCN(CC)C(=O)CN(C)C(c1ccccc1)c1cc2cc(Br)ccc2nc1OC (stereo not shown) [Compound 11],M. smegmatis pIC50,M. Smegmatis ATCC607,5.1
same,IC90 (μg/ml) STA 29213,STA 29213,11.8 µg/mL
COc1nc2ccc(Br)cc2cc1C(c1ccccc1)N(CCN(C)C)c1ccccc1 (stereo not shown) [Compound 18],melting point,,120 °C
same,IC50,M. Smegmatis ATCC607,2000 nM
COc1cccc(CN(CCN(C)C)C(c2ccccc2)c2cc3cc(Br)ccc3nc2OC)c1 (stereo not shown) [Compound 20],IC90,EFA 29212,15.7 µg/mL
same,IC90,LMO 49594,15.7 µg/mL
same,IC90,SMU 33402,12.5 µg/mL
same,IC90,STA RMETH,14 µg/mL
same,IC90,SPY 8668,12.5 µg/mL
same,IC50,M. Smegmatis ATCC607,1260 nM
same,IC90,ECO 25922,15.7 µg/mL
same,IC90,STA 29213,14 µg/mL
same,IC90,SPN 6305,15.7 µg/mL
COc1nc2ccc(Br)cc2cc1C(c1ccccc1F)N(CCN(C)C)Cc1ccccc1 (stereo not shown) [Compound 22],IC90,EFA 29212,10.4 µg/mL
same,IC90,LMO 49594,8.3 µg/mL
same,IC90,EFA 14506,41.5 µg/mL
same,IC90,STA 25923,8.3 µg/mL
same,IC50,M. Smegmatis ATCC607,1580 nM
same,IC90,ECO 25922,52.2 µg/mL
same,IC90,PAE 27853,13.1 µg/mL
same,IC90,STA 29213,10.4 µg/mL
same,IC90,BSU 43639,41.5 µg/mL
CC(C)N(C)C(=O)CN(Cc1ccccc1)C(c1cccnc1)c1cc2ccccc2nc1-c1ccccc1 (stereo not shown) [Compound 34],M. smegmatis pIC50,M. Smegmatis ATCC607,5.8
same,IC90 (μg/ml) STA 29213,STA 29213,51.5 µg/mL
Cc1ccc2nc(-c3ccccc3)c(C(c3ccccc3)N(CC(=O)N(C)C(C)C)Cc3ccccc3)cc2c1 (stereo not shown) [Compound 41],melting point,,126 °C
same,IC50,M. Smegmatis ATCC607,100 nM
same,IC90,ECO 25922,13.3 µg/mL
same,IC50,[1],6310 nM
CN(C)C(=O)CN(Cc1ccccc1)C(c1ccccc1)c1cc2cc(Br)ccc2nc1-c1ccccc1 (stereo not shown) [Compound 53],melting point,,110 °C
same,IC50,M. Smegmatis ATCC607,316 nM
same,IC90,ECO 25922,14.2 µg/mL
same,IC50,[1],20000 nM
COc1nc2ccc(C)cc2cc1C(c1ccccc1)N(CC(=O)N1CCOCC1)Cc1ccccc1 (stereo not shown) [Compound 59],melting point,,126 °C
same,IC50,M. Smegmatis ATCC607,1580 nM
same,IC90,ECO 25922,12.4 µg/mL
Cc1ccc2nc(-c3ccccc3)c(C(c3ccccc3)N(CC(=O)N3CCCCC3)Cc3ccccc3)cc2c1 (stereo not shown) [Compound 66],melting point,,78 °C
same,IC50,M. Smegmatis ATCC607,2510 nM
same,IC90,ECO 25922,13.6 µg/mL
same,IC50,[1],39800 nM
Cc1ccc2nc(-c3ccccc3)c(C(c3ccccc3)N(CC(=O)NN3CCN(C)CC3)Cc3ccccc3)cc2c1 (stereo not shown) [Compound 69],IC50,M. Smegmatis ATCC607,1580 nM
same,IC90,STA 29213,9 µg/mL
Cc1ccc2nc(-c3ccccc3)c(C(c3ccccc3)N(CC(=O)N3CCSCC3)Cc3ccccc3)cc2c1 (stereo not shown) [Compound 70],IC90,EFA 29212,14 µg/mL
same,melting point,,144 °C
same,IC90,LMO 49594,14 µg/mL
same,IC50,M. Smegmatis ATCC607,251 nM
same,IC90,ECO 25922,14 µg/mL
same,IC50,[1],3160 nM
COc1nc2ccc(Br)cc2cc1C(c1ccccc1)N(CC(=O)N1CCN(C)CC1)Cc1ccccc1 (stereo not shown) [Compound 104],melting point,,152 °C
same,IC90,SMU 33402,11.4 µg/mL
same,IC90,STA 25923,12.8 µg/mL
same,IC90,STA RMETH,12.8 µg/mL
same,IC90,SPY 8668,11.4 µg/mL
same,IC50,M. Smegmatis ATCC607,1580 nM
same,IC90,ECO 25922,14.4 µg/mL
same,IC90,PAE 27853,14.4 µg/mL
same,IC90,STA 29213,11.4 µg/mL
same,IC90,BSU 43639,12.8 µg/mL
same,IC90,SPN 6305,14.4 µg/mL
COc1nc2ccc(Br)cc2cc1C(c1ccccc1)N(CC(=O)N1CCOCC1)Cc1ccccc1 (stereo not shown) [Compound 112],M. smegmatis pIC50,M. Smegmatis ATCC607,5.8
same,IC90 (μg/ml) STA 29213,STA 29213,14.1 µg/mL
COc1nc2ccc(C#N)cc2cc1C(c1ccccc1)N(CC(=O)N1CCCC1)Cc1ccccc1 (stereo not shown) [Compound 122],melting point,,161 °C
same,IC50,M. Smegmatis ATCC607,63100 nM
same,IC90,ECO 25922,12.3 µg/mL
COc1nc2ccc(C#N)cc2cc1C(c1ccccc1)N(CC(=O)N1CCN(C)CC1)Cc1ccccc1 (stereo not shown) [Compound 123],M. smegmatis pIC50,M. Smegmatis ATCC607,5.2
same,IC90 (μg/ml) ECO 25922,ECO 25922,13.1 µg/mL
same,IC90 (μg/ml) SPN 6305,SPN 6305,13.1 µg/mL
CCOC(=O)CN(Cc1ccccc1)C(c1ccccc1)c1cc2cc(Br)ccc2nc1OC (stereo not shown) [Compound 137],IC90,STA 25923,11.6 µg/mL
same,IC90,ECO 25922,13 µg/mL
CCOC(=O)CN(Cc1cccc2ncccc12)C(c1ccccc1)c1cc2cc(Br)ccc2nc1OC (stereo not shown) [Compound 145],melting point,,96 °C
same,IC50,M. Smegmatis ATCC607,31600 nM
CCOC(=O)CN(Cc1ccccc1)C(c1ccccc1)c1cc2cc(C#N)ccc2nc1OC (stereo not shown) [Compound 151],melting point,,148 °C
